{
  "source": "patent EP3748362A1",
  "about": "“IN VITRO METHOD FOR DETECTING RENAL DISEASE” (Fundacion Instituto De Investigacion Sanitaria Fundacion …, priority 2019, dated 2020)",
  "key": {"NF-κB2": {"system": "NF-κB2", "assay": "NF-κB2 activation (p52 western blot) in MARSS gene silenced HK2 cells stimulated with TWEAK", "format": "cell-based, Human", "conditions": "paricalcitol 15 µmol/L 48 hours, TWEAK 100 ng/ml", "method": "Human kidney proximal tubule epithelial cells (HK2 cell line, ATCC CRL-2190) were grown in RPMI 1640 with 10% fetal bovine serum (FBS), 1% glutamine, 100 U/ml penicillin, 100 µg/ml streptomycin, 5 µg/ml insulin-transferrin-selenite and 36 ng/ml hydrocortisone in 5% CO2 at 37° C. When cells reached 60 to 70% confluence, they were serum-depleted for 24 hours before the experiment.\nCells were stimulated with 100ng/ml recombinant human soluble TWEAK (Millipore) or p-200 µg/ml cresyl-sulfate (Raymond Vanholder and Griet Glorieux, University of Gent, Belgium). Concentrations of TWEAK and p-cresyl-sulfate were based on previously published dose-response experiments (Poveda et al. 2014; Sanz et al. 2008). […] DMSO, used as a solvent in some cases, had no effect on cell viability or on gene expression levels.\nFor western blot, cell (25 µg/lane) and kidney (100-150 µg/lane) protein extracts were separated on 6%-12% polyacrylamide-SDS gels under reducing conditions. […] Autoradiographs were scanned using the Gel Doc™ EZ imager and analyzed with the Image Lab 3.0 software (BioRad). […]"}, "[1]": {"system": "renal inflammation in experimental Unilateral Ureteral Obstruction (UUO)", "assay": "Renal inflammation in unilateral ureteral obstruction (UUO) in mice", "format": "in vivo, C57BL/6 mice", "conditions": "obstructed kidneys (UUO), paricalcitol 750 ng/kg/day", "method": "All animal procedures were performed according to the guidelines of animal research in the European Community and with prior approval by the Ethics Committee of the Health Research of the IIS-Fundacion Jiménez Díaz. For in vivo studies, mice received a daily intraperitoneal injection of the VDRA Paricalcitol starting 48 hours prior to induction of kidney damage.\nAt the time of sacrifice, animals were anesthetized with 5 mg/kg xylazine (Rompun, Bayer AG) and 35 mg/kg ketamine (Ketolar, Pfizer) and the kidneys perfused in situ with cold saline before removal. […]\nParaffin-embedded kidney sections (3 µm) were stained using conventional methods. […] For each sample (processed by duplicate in a blinded manner), the average value was obtained from the analysis of 4 fields (20X objective) as density/mm2 or percentage stained area vs total analyzed area. Data are expressed as fold increase over control mice, as mean ± SEM of 8-10 animals per group. […]\nTotal RNA was isolated from cells and mouse kidney samples with Trizol (Invitrogen). […] The mRNA copy numbers were calculated for each sample by the instrument software using Ct value. Results are expressed in copy numbers, calculated relative to unstimulated cells or control mice, after normalization against 18S."}},
  "data": [
    {"smiles": "C[C@H](/C=C/[C@H](C)C(C)(C)O)[C@H]1CC[C@H]2/C(=C/C=C3C[C@@H](O)C[C@H](O)C3)CCC[C@]12C", "note": "[paricalcitol]", "values": [
      {"measurement": "TWEAK-induced NF-κB2 activation", "setting": "NF-κB2", "value": "diminished"},
      {"measurement": "inflammatory cell infiltration", "setting": "[1]; 5 days after UUO", "value": "prevented"},
      {"measurement": "increased expression of proinflammatory factors, such as CCL2, CCL5, IL6", "setting": "[1]; real time PCR", "value": "prevented"}
    ]}
  ]
}
